Reference: ChEMBL document CHEMBL5053525, “Synthesis and antiviral effect of phosphamide modified vidarabine for treating HSV 1 infections” (Bioorg Med Chem Lett, 2021)
Active and inactive are the calls of the source. The rule behind the calls is not given here.

Tests used:
Human alphaherpesvirus 1 [1] = test: Antiviral activity against HSV-1 infected in human Huh-7 cells assessed as inhibition of viral replication by measuring ICPO level at 10 uM pre-infected with viral particles for 2 hrs followed by compound treatment for 24 hrs by Western blot analysis; assay type: functional, organism-based
Human alphaherpesvirus 1 [2] = test: Antiviral activity against HSV-1 infected in human HepG2 cells assessed as inhibition of viral replication by measuring ICPO level at 10 uM pre-infected with viral particles for 2 hrs followed by compound treatment for 24 hrs by Western blot analysis; assay type: functional, organism-based
Human alphaherpesvirus 1 [3] = test: Antiviral activity against HSV-1 infected in African green monkey Vero cells assessed as inhibition of viral replication by measuring ICPO level at 10 uM pre-infected with viral particles for 2 hrs followed by compound treatment for 24 hrs by Western blot analysis; assay type: functional, organism-based
Human alphaherpesvirus 1 [4] = test: Antiviral activity against HSV-1 infected in human Huh-7 cells assessed as inhibition of viral replication by measuring ICPO level; assay type: functional, organism-based; details: dose 0.1-1.6 µM
Human alphaherpesvirus 1 [5] = test: Antiviral activity against GFP-expressing HSV-1 assessed as reduction in viral growth by fluorescence assay; assay type: functional, organism-based
Huh-7 = test: Cytotoxicity against human Huh-7 cells assessed as effect on cell viability at 10 uM measured by MTT asay; assay type: cell-based; details: huh-7, 10 µM
Human alphaherpesvirus 1 [6] = test: Antiviral activity against HSV-1 infected in human Huh-7 cells assessed as reduction in plaque forming units at 1 uM measured after 48 hrs by virus titre method; assay type: functional
Human alphaherpesvirus 1 [7] = test: Antiviral activity against HSV-1 infected in human Huh-7 cells assessed as reduction in plaque forming units at 1 uM measured after 48 hrs by virus titre method relative to NTC; assay type: functional

In the case of `CSCC[C@H](NP(=O)(OC[C@H]1O[C@@H](n2cnc3c(N)ncnc32)[C@@H](O)[C@@H]1O)Oc1ccccc1)C(=O)OC(C)C` (stereo partly specified), the inhibition (Human alphaherpesvirus 1 [1]) is reported as “Active” and the inhibition (Human alphaherpesvirus 1 [2]) is reported as “Active”.

In the case of `CC(C)OC(=O)[C@@H](NP(=O)(OC[C@H]1O[C@@H](n2cnc3c(N)ncnc32)[C@@H](O)[C@@H]1O)Oc1ccccc1)C(C)C` (stereo partly specified), the inhibition (Human alphaherpesvirus 1 [1]) is reported as “Active” and the inhibition (Human alphaherpesvirus 1 [2]) is reported as “Active”.

With `CC(C)C[C@H](NP(=O)(OC[C@H]1O[C@@H](n2cnc3c(N)ncnc32)[C@@H](O)[C@@H]1O)Oc1ccccc1)C(=O)OC(C)C` (stereo partly specified) the inhibition (Human alphaherpesvirus 1 [3]) was “inactive”, the inhibition (Human alphaherpesvirus 1 [1]) was “Active” and the inhibition (Human alphaherpesvirus 1 [2]) was “Active”. The inhibition (Human alphaherpesvirus 1 [4]) was “Dose-dependent effect”, the EC50 (Human alphaherpesvirus 1 [5]) was 1.18 µM and the Activity (Huh-7) was “Non-Toxic”.

`CC(C)C[C@H](N[P@](=O)(OC[C@H]1O[C@@H](n2cnc3c(N)ncnc32)[C@@H](O)[C@@H]1O)Oc1ccccc1)C(=O)OC(C)C` was tested, and the inhibition (Human alphaherpesvirus 1 [3]) was “inactive”, the inhibition (Human alphaherpesvirus 1 [1]) was “Active” and the inhibition (Human alphaherpesvirus 1 [2]) was “Active”. The inhibition (Human alphaherpesvirus 1 [4]) was “Dose-dependent effect”, the Activity (Human alphaherpesvirus 1 [6]) was “inactive” and the “fold change (FC)” value (Human alphaherpesvirus 1 [7]) was 1000. The EC50 (Human alphaherpesvirus 1 [5]) was 0.526 µM and the Activity (Huh-7) was “Non-Toxic”.

For `CSCC[C@H](N[P@](=O)(OC[C@H]1O[C@@H](n2cnc3c(N)ncnc32)[C@@H](O)[C@@H]1O)Oc1ccccc1)C(=O)OC(C)C`, the inhibition (Human alphaherpesvirus 1 [1]) was “Active” and the inhibition (Human alphaherpesvirus 1 [2]) was “Active”.

With `COC(=O)[C@@H](NP(=O)(OC[C@H]1O[C@@H](n2cnc3c(N)ncnc32)[C@@H](O)[C@@H]1O)Oc1ccccc1)C(C)C` (stereo partly specified) the inhibition (Human alphaherpesvirus 1 [1]) was “Active” and the inhibition (Human alphaherpesvirus 1 [2]) was “Active”.

`CC(C)OC(=O)[C@@H](N[P@](=O)(OC[C@H]1O[C@@H](n2cnc3c(N)ncnc32)[C@@H](O)[C@@H]1O)Oc1ccccc1)C(C)C` was tested, and the inhibition (Human alphaherpesvirus 1 [1]) was “Active” and the inhibition (Human alphaherpesvirus 1 [2]) was “Active”.

With `CC(C)OC(=O)[C@H](Cc1c[nH]c2ccccc12)N[P@](=O)(OC[C@H]1O[C@@H](n2cnc3c(N)ncnc32)[C@@H](O)[C@@H]1O)Oc1ccccc1` the inhibition (Human alphaherpesvirus 1 [1]) was “Active” and the inhibition (Human alphaherpesvirus 1 [2]) was “Active”.

With `COC(=O)[C@H](NP(=O)(OC[C@H]1O[C@@H](n2cnc3c(N)ncnc32)[C@@H](O)[C@@H]1O)Oc1ccccc1)C(C)C` (stereo partly specified) the inhibition (Human alphaherpesvirus 1 [1]) was “Active” and the inhibition (Human alphaherpesvirus 1 [2]) was “Active”.

For `CC(C)OC(=O)[C@H](Cc1ccccc1)N[P@](=O)(OC[C@H]1O[C@@H](n2cnc3c(N)ncnc32)[C@@H](O)[C@@H]1O)Oc1ccccc1`, the inhibition (Human alphaherpesvirus 1 [3]) was “inactive”, the inhibition (Human alphaherpesvirus 1 [1]) was “Active” and the inhibition (Human alphaherpesvirus 1 [2]) was “Active”. For the same compound, the inhibition (Human alphaherpesvirus 1 [4]) was “Dose-dependent effect”, the EC50 (Human alphaherpesvirus 1 [5]) was 1.06 µM and the Activity (Huh-7) was “Non-Toxic”.

In the case of `CC(C)OC(=O)[C@H](C)NP(=O)(OC[C@H]1O[C@@H](n2cnc3c(N)ncnc32)[C@@H](O)[C@@H]1O)Oc1ccccc1` (stereo partly specified), the inhibition (Human alphaherpesvirus 1 [1]) is reported as “Active” and the inhibition (Human alphaherpesvirus 1 [2]) is reported as “Active”.

`NC(=O)c1ncn([C@@H]2O[C@H](CO)[C@@H](O)[C@H]2O)n1` [RIBAVIRIN] was tested, and the Activity (Human alphaherpesvirus 1 [6]) was 100 PFU/ml.

In the case of `CCCCCOC(=O)Nc1ncnc2c1ncn2[C@@H]1O[C@H](CO[P@@](=O)(N[C@@H](C)C(=O)OC(C)C)Oc2ccccc2)[C@@H](O)[C@@H]1O`, the inhibition (Human alphaherpesvirus 1 [1]) is reported as “Active” and the inhibition (Human alphaherpesvirus 1 [2]) is reported as “Active”.

`CC(C)OC(=O)CN[P@](=O)(OC[C@H]1O[C@@H](n2cnc3c(N)ncnc32)[C@@H](O)[C@@H]1O)Oc1ccccc1` was tested, and the inhibition (Human alphaherpesvirus 1 [1]) was “Active” and the inhibition (Human alphaherpesvirus 1 [2]) was “Active”.

For `CC(C)OC(=O)[C@H](C)N[P@](=O)(OC[C@H]1O[C@@H](n2cnc3c(N)ncnc32)[C@@H](O)[C@@H]1O)Oc1ccccc1`, the inhibition (Human alphaherpesvirus 1 [1]) was “Active” and the inhibition (Human alphaherpesvirus 1 [2]) was “Active”.

In the case of `CC(C)OC(=O)[C@@H](C)N[P@](=O)(OC[C@H]1O[C@@H](n2cnc3c(N)ncnc32)[C@@H](O)[C@@H]1O)Oc1ccccc1`, the inhibition (Human alphaherpesvirus 1 [1]) is reported as “Active” and the inhibition (Human alphaherpesvirus 1 [2]) is reported as “Active”.

Work on `Nc1nc2c(ncn2COC(CO)CO)c(=O)[nH]1` [GANCICLOVIR] yielded an EC50 (Human alphaherpesvirus 1 [5]) of less than 0.1 µM.
